Laboratory results as given in ChEMBL document CHEMBL1201862, “PubChem BioAssay data set” (2004).
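Dose response: 5 concentrations. Exposure: 48 h. Format: 96-well plates. Endpoint: linear interpolation; highest concentration if not reached. The concentration for 50% growth inhibition is given as GI50.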 Active and inactive are the calls of the source. Rule as the data show it: active = GI50 up to about 1.1 µM and inactive = higher.

Tests used:
Experiment in all cases: NCI anticancer screen, dose series, 48 h
786-0 = test system: 786-0
A549 = test system: A549
ACHN = test system: ACHN
BT-549 = test system: BT-549
CAKI-1 = test system: CAKI-1
CCRF-CEM = test system: CCRF-CEM
COLO 205 = test system: COLO 205
DU-145 = test system: DU-145
EKVX = test system: EKVX
HCT-116 = test system: HCT-116
HCT-15 = test system: HCT-15
HL-60 = test system: HL-60
HOP-62 = test system: HOP-62
HOP-92 = test system: HOP-92
HT-29 = test system: HT-29
Hs-578T = test system: Hs-578T
IGROV-1 = test system: IGROV-1
K562 = test system: K562
KM12 = test system: KM12
LOX IMVI = test system: LOX IMVI
M14 = test system: M14
MCF7 = test system: MCF7
MDA-MB-435 = test system: MDA-MB-435
MDA-N = test system: MDA-N
MOLT-4 = test system: MOLT-4
Malme-3M = test system: Malme-3M
NCI-H226 = test system: NCI-H226
NCI-H23 = test system: NCI-H23
NCI-H460 = test system: NCI-H460
NCI-H522 = test system: NCI-H522
NCI/ADR-RES = test system: NCI/ADR-RES
OVCAR-3 = test system: OVCAR-3
OVCAR-4 = test system: OVCAR-4
OVCAR-5 = test system: OVCAR-5
OVCAR-8 = test system: OVCAR-8
PC-3 = test system: PC-3
RPMI-8226 = test system: RPMI-8226
SF-268 = test system: SF-268
SF-295 = test system: SF-295
SK-MEL-28 = test system: SK-MEL-28
SK-MEL-2 = test system: SK-MEL-2
SK-MEL-5 = test system: SK-MEL-5
SK-OV-3 = test system: SK-OV-3
SN12C = test system: SN12C
SNB-19 = test system: SNB-19
SNB-75 = test system: SNB-75
SR = test system: SR
SW-620 = test system: SW-620
T47D = test system: T47D
TK-10 = test system: TK-10
U-251 = test system: U-251
UACC-257 = test system: UACC-257
UACC-62 = test system: UACC-62
UO-31 = test system: UO-31
A498 = test system: A498
HCC 2998 = test system: HCC 2998
MDA-MB-231 = test system: MDA-MB-231
SF-539 = test system: SF-539
RXF 393 = test system: RXF 393

## CS(=O)(=O)CCC(N)P(=O)(O)O (configuration not stated)
786-0
  GI50: > 100 µM (inactive)
A549
  GI50: > 100 µM (inactive)
ACHN
  GI50: > 100 µM (inactive)
BT-549
  GI50: > 100 µM (inactive)
CAKI-1
  GI50: > 100 µM (inactive)
CCRF-CEM
  GI50: > 100 µM (inactive)
COLO 205
  GI50: > 100 µM (inactive)
DU-145
  GI50: > 100 µM (inactive)
EKVX
  GI50: > 100 µM (inactive)
HCT-116
  GI50: > 100 µM (inactive)
HCT-15
  GI50: > 100 µM
HL-60
  GI50: > 100 µM (inactive)
HOP-62
  GI50: > 100 µM (inactive)
HOP-92
  GI50: > 100 µM (inactive)
HT-29
  GI50: > 100 µM (inactive)
Hs-578T
  GI50: > 100 µM (inactive)
IGROV-1
  GI50: > 100 µM (inactive)
K562
  GI50: > 100 µM (inactive)
KM12
  GI50: > 100 µM (inactive)
LOX IMVI
  GI50: > 100 µM (inactive)
M14
  GI50: > 100 µM (inactive)
MCF7
  GI50: > 100 µM (inactive)
MDA-MB-435
  GI50: > 100 µM (inactive)
MDA-N
  GI50: > 100 µM (inactive)
MOLT-4
  GI50: > 100 µM (inactive)
Malme-3M
  GI50: > 100 µM (inactive)
NCI-H226
  GI50: > 100 µM (inactive)
NCI-H23
  GI50: > 100 µM (inactive)
NCI-H460
  GI50: > 100 µM (inactive)
NCI-H522
  GI50: > 100 µM (inactive)
NCI/ADR-RES
  GI50: > 100 µM (inactive)
OVCAR-3
  GI50: > 100 µM (inactive)
OVCAR-4
  GI50: > 100 µM (inactive)
OVCAR-5
  GI50: > 100 µM (inactive)
OVCAR-8
  GI50: > 100 µM (inactive)
PC-3
  GI50: > 100 µM (inactive)
RPMI-8226
  GI50: > 100 µM (inactive)
SF-268
  GI50: > 100 µM (inactive)
SF-295
  GI50: > 100 µM (inactive)
SK-MEL-28
  GI50: > 100 µM (inactive)
SK-MEL-2
  GI50: > 100 µM (inactive)
SK-MEL-5
  GI50: > 100 µM (inactive)
SK-OV-3
  GI50: > 100 µM (inactive)
SN12C
  GI50: > 100 µM (inactive)
SNB-19
  GI50: > 100 µM (inactive)
SNB-75
  GI50: > 100 µM (inactive)
SR
  GI50: > 100 µM (inactive)
SW-620
  GI50: > 100 µM (inactive)
T47D
  GI50: > 100 µM (inactive)
TK-10
  GI50: > 100 µM (inactive)
U-251
  GI50: > 100 µM (inactive)
UACC-257
  GI50: > 100 µM (inactive)
UACC-62
  GI50: > 100 µM (inactive)
UO-31
  GI50: > 100 µM (inactive)

## CCOC(=O)/C(=C\c1cn(C(C)=O)c2ccccc12)P(C)(=O)OCC (configuration not stated)
786-0
  GI50: 39.5 µM (inactive)
A498
  GI50: 28.8 µM (inactive)
A549
  GI50: 37.1 µM (inactive)
ACHN
  GI50: 26 µM (inactive)
BT-549
  GI50: 22.3 µM (inactive)
CAKI-1
  GI50: 46.2 µM (inactive)
CCRF-CEM
  GI50: 57.3 µM (inactive)
COLO 205
  GI50: 54.5 µM (inactive)
DU-145
  GI50: 25.9 µM (inactive)
EKVX
  GI50: 33.3 µM (inactive)
HCC 2998
  GI50: 27.9 µM (inactive)
HCT-116
  GI50: 26.2 µM (inactive)
HCT-15
  GI50: 28.8 µM
HL-60
  GI50: > 100 µM (inactive)
HOP-62
  GI50: 33.2 µM (inactive)
HOP-92
  GI50: 17.2 µM (inactive)
HT-29
  GI50: 39.9 µM (inactive)
IGROV-1
  GI50: 16.8 µM (inactive)
K562
  GI50: > 100 µM (inactive)
KM12
  GI50: 33.1 µM (inactive)
M14
  GI50: 16.7 µM (inactive)
MCF7
  GI50: 32.8 µM (inactive)
MDA-MB-231
  GI50: 27.4 µM (inactive)
MDA-MB-435
  GI50: 31.8 µM (inactive)
MDA-N
  GI50: 24.8 µM (inactive)
MOLT-4
  GI50: > 100 µM (inactive)
Malme-3M
  GI50: 17.3 µM (inactive)
NCI-H522
  GI50: 19.2 µM (inactive)
NCI/ADR-RES
  GI50: 20.4 µM (inactive)
OVCAR-3
  GI50: 28.5 µM (inactive)
OVCAR-5
  GI50: 68.7 µM (inactive)
OVCAR-8
  GI50: 33.4 µM (inactive)
PC-3
  GI50: 52.5 µM (inactive)
RPMI-8226
  GI50: > 100 µM (inactive)
SF-268
  GI50: 21.1 µM (inactive)
SF-295
  GI50: 41.8 µM (inactive)
SF-539
  GI50: 19.8 µM (inactive)
SK-MEL-28
  GI50: 64.7 µM (inactive)
SK-MEL-2
  GI50: 39.8 µM (inactive)
SK-MEL-5
  GI50: 47.5 µM (inactive)
SK-OV-3
  GI50: 27.1 µM (inactive)
SN12C
  GI50: 26.8 µM (inactive)
SNB-19
  GI50: 49.9 µM (inactive)
SNB-75
  GI50: 11 µM (inactive)
SR
  GI50: > 100 µM (inactive)
SW-620
  GI50: 39.2 µM (inactive)
T47D
  GI50: 37.2 µM (inactive)
U-251
  GI50: 40.1 µM (inactive)
UACC-62
  GI50: 60 µM (inactive)
UO-31
  GI50: 32.3 µM (inactive)

## COP(=O)(Cc1ccccc1)Cc1ccccc1
786-0
  GI50: > 100 µM (inactive)
A549
  GI50: > 100 µM (inactive)
ACHN
  GI50: > 100 µM (inactive)
BT-549
  GI50: > 100 µM (inactive)
CAKI-1
  GI50: > 100 µM (inactive)
CCRF-CEM
  GI50: > 100 µM (inactive)
COLO 205
  GI50: > 100 µM (inactive)
DU-145
  GI50: > 100 µM (inactive)
EKVX
  GI50: > 100 µM (inactive)
HCC 2998
  GI50: > 100 µM (inactive)
HCT-116
  GI50: > 100 µM (inactive)
HCT-15
  GI50: > 100 µM
HL-60
  GI50: > 100 µM (inactive)
HOP-62
  GI50: > 100 µM (inactive)
HT-29
  GI50: > 100 µM (inactive)
Hs-578T
  GI50: > 100 µM (inactive)
IGROV-1
  GI50: > 100 µM (inactive)
K562
  GI50: > 100 µM (inactive)
LOX IMVI
  GI50: > 100 µM (inactive)
M14
  GI50: > 100 µM (inactive)
MCF7
  GI50: > 100 µM (inactive)
MDA-MB-231
  GI50: > 100 µM (inactive)
MOLT-4
  GI50: > 100 µM (inactive)
Malme-3M
  GI50: > 100 µM (inactive)
NCI-H226
  GI50: > 100 µM (inactive)
NCI-H23
  GI50: > 100 µM (inactive)
NCI-H460
  GI50: > 100 µM (inactive)
NCI-H522
  GI50: > 100 µM (inactive)
NCI/ADR-RES
  GI50: > 100 µM (inactive)
OVCAR-4
  GI50: > 100 µM (inactive)
OVCAR-5
  GI50: > 100 µM (inactive)
OVCAR-8
  GI50: > 100 µM (inactive)
PC-3
  GI50: > 100 µM (inactive)
RPMI-8226
  GI50: > 100 µM (inactive)
RXF 393
  GI50: 86.1 µM (inactive)
SF-268
  GI50: > 100 µM (inactive)
SF-295
  GI50: > 100 µM (inactive)
SF-539
  GI50: > 100 µM (inactive)
SK-MEL-28
  GI50: > 100 µM (inactive)
SK-MEL-2
  GI50: > 100 µM (inactive)
SK-MEL-5
  GI50: > 100 µM (inactive)
SK-OV-3
  GI50: > 100 µM (inactive)
SN12C
  GI50: > 100 µM (inactive)
SNB-19
  GI50: > 10 µM (inactive)
SNB-75
  GI50: > 100 µM (inactive)
SR
  GI50: > 100 µM (inactive)
SW-620
  GI50: > 100 µM (inactive)
T47D
  GI50: > 100 µM (inactive)
TK-10
  GI50: > 100 µM (inactive)
U-251
  GI50: > 100 µM (inactive)
UACC-257
  GI50: > 100 µM (inactive)
UACC-62
  GI50: > 100 µM (inactive)
UO-31
  GI50: > 100 µM (inactive)
